Source: patent US20260297129A1, “PEPTIDES AS SELECTIVE IL-23 RECEPTOR INHIBITORS” (SANOFI, priority 2023, published 2026)
Numbered stars: 1 amine (or outer) side, 2 acyl side, 3 side chain; on linkers, the order of the positions; unused ones are H or OH. Bridge positions count the residues as written; N and C are the ends. Square brackets hold non-standard residues; d marks the D form. Peptide text beside a SMILES is read from it. * marks the point of attachment. Lys(Me,(CH2)4NMe(CH2)5CO) = CN(CCCCCC(=O)[*:3])CCCCN(C)CCCC[C@H](N[*:1])C(=O)[*:2]; X2 = O=C(Cc1ccc(-c2ccc(CC(=O)[*:2])cc2)cc1)[*:1]; Trp(7-Me) = Cc1cccc2c(C[C@H](N)C(=O)O)c[nH]c12; Sebacoyl = O=C(CCCCCCCCC(=O)[*:2])[*:1]; NH(CH2)9CO = O=C(CCCCCCCCCN[*:1])[*:2]; 2Nal = N[C@@H](Cc1ccc2ccccc2c1)C(=O)O; Suberoyl = O=C(CCCCCCC(=O)[*:2])[*:1]; d2Nal = N[C@H](Cc1ccc2ccccc2c1)C(=O)O; C12 diacid = O=C(O)CCCCCCCCCCC(=O)*; X1 = O=C(CCCCCCCCCCCCCN[*:1])[*:2]; 3Pal = N[C@@H](Cc1cccnc1)C(=O)O; 12Ado = NCCCCCCCCCCCC(=O)O; AEEEA = NCCOCCOCCOCC(=O)O; Aun = NCCCCCCCCCCC(=O)O; Thp = NC1(C(=O)O)CCOCC1; Me2NCH2CH2 = CN(C)CC*; Aib = CC(C)(N)C(=O)O; Aoc = NCCCCCCCC(=O)O; Sar = CNCC(=O)O

How the values were obtained:
[1] = test system: IL-23 induced STAT3 signaling (IL-23 receptor) in HEK-Blue IL-23 cells; assay: Inhibition of IL-23 induced STAT3 signaling in HEK-Blue IL-23 cells, SEAP reporter (Table 9); type: cell-based; settings: human IL23 0.25 ng/ml, overnight, read-out: Inhibition of IL-23 induced pSTAT3 (IC50 nM)
Outline: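 STAT3-driven SEAP output measured at OD 620–655 nm after 45 min QUANTI-Blue development of supernatant, with dose-response fits. Peptides were given 60 min ahead of 0.25 ng/ml (final) human IL-23, followed by overnight culture at 37 °C; 10,000 HEK-Blue IL-23 cells per well.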

[2] = Protease stability in simulated intestinal fluids (FaSSIF) (Table 7); type: in vitro ADME; settings: fassif with pancreatin, 37° C.; for remaining at 1 h, 1 µM: 60 min, read-out: Remaining percentage of peptide compound, FaSSIF 60 (min); for remaining at 2 h, 1 µM: 120 min, read-out: Remaining percentage of peptide compound, FaSSIF 120 (min); for remaining at 4 h, 1 µM: 240 min, read-out: Remaining percentage of peptide compound, FaSSIF 240 (min)
Outline: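 Percent parent remaining was derived from LC-MS/MS peak areas normalised to time 0, set at 100%. Sampling at 0, 60, 120 and 240 min, quenched in ethanol with 0.1% HCOOH. Final peptide 1 μM, 37° C, SIF containing pancreatin.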

| SMILES | remaining at 1 h, 1 µM [2] [%] | remaining at 2 h, 1 µM [2] [%] | remaining at 4 h, 1 µM [2] [%] | IC50 [1] [nM] |
| --- | --- | --- | --- | --- |
| Cc1cccc2c(C[C@@H]3NC(=O)CCCCCCCCCCCCCNC(=O)CC[C@@H](C(=O)N[C@@H](CC(N)=O)C(=O)N[C@@H](Cc4cccnc4)C(=O)N(C)CC(N)=O)NC(=O)C(C)(C)NC(=O)[C@H](Cc4ccc5ccccc5c4)NC(=O)[C@H](Cc4ccc(OCCN(C)C)cc4)NC(=O)C4(CCOCC4)NC(=O)[C@H](CCC(N)=O)NC3=O)c[nH]c12 [compound 1] ([X1][Trp(7-Me)]Q[Thp]Y(Me2NCH2CH2)[2Nal][Aib]EN[3Pal][Sar]-NH2; lactam N-8) | 96 | 90 | 90 | 1.14 |
| Cc1cccc2c(C[C@@H]3NC(=O)CCCCCCCCCCNC(=O)CC[C@@H](C(=O)N[C@@H](CC(N)=O)C(=O)N[C@@H](Cc4cccnc4)C(=O)N(C)CC(N)=O)NC(=O)C(C)(C)NC(=O)[C@H](Cc4ccc5ccccc5c4)NC(=O)[C@H](Cc4ccc(OCCN(C)C)cc4)NC(=O)C4(CCOCC4)NC(=O)[C@H](CC(C)C)NC3=O)c[nH]c12 [compound 7] ([Aun][Trp(7-Me)]L[Thp]Y(Me2NCH2CH2)[2Nal][Aib]EN[3Pal][Sar]-NH2; lactam N-8) | 80 | 81 | 82 | 1.73 |
| Cc1cccc2c(C[C@@H]3NC(=O)CCCCCCCCCNC(=O)CC[C@@H](C(=O)N[C@@H](CC(N)=O)C(=O)N[C@@H](Cc4cccnc4)C(=O)N(C)CC(N)=O)NC(=O)C(C)(C)NC(=O)[C@H](Cc4ccc5ccccc5c4)NC(=O)[C@H](Cc4ccc(OCCN(C)C)cc4)NC(=O)C4(CCOCC4)NC(=O)[C@H](CC(C)C)NC3=O)c[nH]c12 [compound 8] ([NH(CH2)9CO][Trp(7-Me)]L[Thp]Y(Me2NCH2CH2)[2Nal][Aib]EN[3Pal][Sar]-NH2; lactam N-8) | 79 | 79 | 72 | 1.85 |
| Cc1cccc2c(C[C@@H]3NC(=O)CCCCCCCNC(=O)CC[C@@H](C(=O)N[C@@H](CC(N)=O)C(=O)N[C@@H](Cc4cccnc4)C(=O)N(C)CC(N)=O)NC(=O)C(C)(C)NC(=O)[C@H](Cc4ccc5ccccc5c4)NC(=O)[C@H](Cc4ccc(OCCN(C)C)cc4)NC(=O)C4(CCOCC4)NC(=O)[C@H](CC(C)C)NC3=O)c[nH]c12 [compound 9] ([Aoc][Trp(7-Me)]L[Thp]Y(Me2NCH2CH2)[2Nal][Aib]EN[3Pal][Sar]-NH2; lactam N-8) | 74 | 76 | 74 | 10.8 |
| CC(=O)NCCCC[C@@H]1NC(=O)[C@H](Cc2c[nH]c3c(C)cccc23)NC(=O)[C@@H](NC(C)=O)CCCCN(C)CCCCN(C)CCCC[C@@H](C(=O)N[C@@H](CC(N)=O)C(=O)N[C@@H](Cc2cccnc2)C(=O)N(C)CC(N)=O)NC(=O)C(C)(C)NC(=O)[C@@H](Cc2ccc3ccccc3c2)NC(=O)[C@H](Cc2ccc(OCCN(C)C)cc2)NC(=O)C2(CCOCC2)NC1=O [compound 13] | 90 | 89 | 88 | 0.17 |
| CC(=O)NCCCC[C@@H]1NC(=O)[C@H](Cc2c[nH]c3c(C)cccc23)NC(=O)CCCCCN(C)CCCCN(C)CCCC[C@@H](C(=O)N[C@@H](CC(N)=O)C(=O)N[C@@H](Cc2cccnc2)C(=O)N(C)CC(N)=O)NC(=O)C(C)(C)NC(=O)[C@H](Cc2ccc3ccccc3c2)NC(=O)[C@H](Cc2ccc(OCCN(C)C)cc2)NC(=O)C2(CCOCC2)NC1=O [compound 18] ([Trp(7-Me)]K(Ac)[Thp]Y(Me2NCH2CH2)[2Nal][Aib][Lys(Me,(CH2)4NMe(CH2)5CO)]N[3Pal][Sar]-NH2; lactam N-7) | 95 | 88 | 85 | 0.47 |

Second part, led by results:

| remaining at 1 h, 1 µM [2] [%] | remaining at 2 h, 1 µM [2] [%] | remaining at 4 h, 1 µM [2] [%] | SMILES | IC50 [1] [nM] |
| --- | --- | --- | --- | --- |
| 100 | 94 | 94 | Cc1cccc2c(C[C@@H]3NC(=O)CCCCCCCCCCCNC(=O)CC[C@@H](C(=O)N[C@@H](CC(N)=O)C(=O)N[C@@H](Cc4cccnc4)C(=O)N(C)CC(N)=O)NC(=O)C(C)(C)NC(=O)[C@H](Cc4ccc5ccccc5c4)NC(=O)[C@H](Cc4ccc(OCCN(C)C)cc4)NC(=O)C4(CCOCC4)NC(=O)[C@H](CCC(N)=O)NC3=O)c[nH]c12 [compound 2] ([12Ado][Trp(7-Me)]Q[Thp]Y(Me2NCH2CH2)[2Nal][Aib]EN[3Pal][Sar]-NH2; lactam N-8) | 0.28 |
| 90 | 87 | 82 | Cc1cccc2c(C[C@@H]3NC(=O)CCCCCCCCCCNC(=O)CC[C@@H](C(=O)N[C@@H](CC(N)=O)C(=O)N[C@@H](Cc4cccnc4)C(=O)N(C)CC(N)=O)NC(=O)C(C)(C)NC(=O)[C@@H](Cc4ccc5ccccc5c4)NC(=O)[C@H](Cc4ccc(OCCN(C)C)cc4)NC(=O)C4(CCOCC4)NC(=O)[C@H](CCC(N)=O)NC3=O)c[nH]c12 [compound 4] ([Aun][Trp(7-Me)]Q[Thp]Y(Me2NCH2CH2)[d2Nal][Aib]EN[3Pal][Sar]-NH2; lactam N-8) | 0.14 |
| 79 | 78 | 77 | Cc1cccc2c(C[C@@H]3NC(=O)CCCCCCCCCCC(=O)NCCCC[C@@H](C(=O)N[C@@H](CC(N)=O)C(=O)N[C@@H](Cc4cccnc4)C(=O)N(C)CC(N)=O)NC(=O)C(C)(C)NC(=O)[C@H](Cc4ccc5ccccc5c4)NC(=O)[C@H](Cc4ccc(OCCN(C)C)cc4)NC(=O)C4(CCOCC4)NC(=O)[C@H](CCC(N)=O)NC3=O)c[nH]c12 [compound 10] ([Trp(7-Me)]Q[Thp]Y(Me2NCH2CH2)[2Nal][Aib]KN[3Pal][Sar]-NH2; linker N-7 via C12 diacid) | 0.35 |
| 74 | 73 | 69 | Cc1cccc2c(C[C@@H]3NC(=O)CCCCCCCCC(=O)NCCCC[C@@H](C(=O)N[C@@H](CC(N)=O)C(=O)N[C@@H](Cc4cccnc4)C(=O)N(C)CC(N)=O)NC(=O)C(C)(C)NC(=O)[C@H](Cc4ccc5ccccc5c4)NC(=O)[C@H](Cc4ccc(OCCN(C)C)cc4)NC(=O)C4(CCOCC4)NC(=O)[C@H](CCC(N)=O)NC3=O)c[nH]c12 [compound 11] ([Trp(7-Me)]Q[Thp]Y(Me2NCH2CH2)[2Nal][Aib]KN[3Pal][Sar]-NH2; linker N-7 via Sebacoyl) | 0.28 |
| 79 | 77 | 78 | Cc1cccc2c(C[C@@H]3NC(=O)CCCCCCC(=O)NCCCC[C@@H](C(=O)N[C@@H](CC(N)=O)C(=O)N[C@@H](Cc4cccnc4)C(=O)N(C)CC(N)=O)NC(=O)C(C)(C)NC(=O)[C@H](Cc4ccc5ccccc5c4)NC(=O)[C@H](Cc4ccc(OCCN(C)C)cc4)NC(=O)C4(CCOCC4)NC(=O)[C@H](CCC(N)=O)NC3=O)c[nH]c12 [compound 12] ([Trp(7-Me)]Q[Thp]Y(Me2NCH2CH2)[2Nal][Aib]KN[3Pal][Sar]-NH2; linker N-7 via Suberoyl) | 0.97 |
| 94 | 90 | 88 | Cc1cccc2c(C[C@@H]3NC(=O)COCCOCCOCCNC(=O)CC[C@@H](C(=O)N[C@@H](CC(N)=O)C(=O)N[C@@H](Cc4cccnc4)C(=O)N(C)CC(N)=O)NC(=O)C(C)(C)NC(=O)[C@H](Cc4ccc5ccccc5c4)NC(=O)[C@H](Cc4ccc(OCCN(C)C)cc4)NC(=O)C4(CCOCC4)NC(=O)[C@H](CCC(N)=O)NC3=O)c[nH]c12 [compound 14] ([AEEEA][Trp(7-Me)]Q[Thp]Y(Me2NCH2CH2)[2Nal][Aib]EN[3Pal][Sar]-NH2; lactam N-8) | 1.21 |
| 74 | 63 | 43 | Cc1cccc2c(C[C@@H]3NC(=O)Cc4ccc(cc4)-c4ccc(cc4)CC(=O)NCCCC[C@@H](C(=O)N[C@@H](CC(N)=O)C(=O)N[C@@H](Cc4cccnc4)C(=O)N(C)CC(N)=O)NC(=O)C(C)(C)NC(=O)[C@H](Cc4ccc5ccccc5c4)NC(=O)[C@H](Cc4ccc(OCCN(C)C)cc4)NC(=O)C4(CCOCC4)NC(=O)[C@H](CCC(N)=O)NC3=O)c[nH]c12 [compound 15] ([Trp(7-Me)]Q[Thp]Y(Me2NCH2CH2)[2Nal][Aib]KN[3Pal][Sar]-NH2; linker N-7 via X2) | 12 |
